Experimental data: patent publication US20100268321A1, “DRUG-RELEASING GRAFT” (C R BARD, INC., priority 2005, published 2010)

Assay: Controlled release study: release of chlorhexidine acetate (ChAc) from drug-loaded ePTFE vascular cuff graft sections into PBS, UV absorbance
Format: physicochemical
Settings: from ePTFE cuff section in PBS
Experimental: With respect to a vascular cuff graft, examples of which are shown in FIGS. 2 and 3, experimentation was conducted to study the release of a drug without a polymeric carrier from the cuff surface. The drug chosen for the experiment was chlorhexidine acetate (ChAc) and the release time was scheduled for nine weeks. The materials and methods of the experiment included creating a calibration curve, preparing the vascular cuff grafts, and measuring absorbance, each of which is described in detail below.
Initially, a calibration curve was created to determine the concentration of ChAc in phosphate buffered saline (PBS). […] The absorbance of each of these solutions was determined using the Shimadzu UV-1601 spectrophotometer. A curve of absorbance versus concentration was expected to be linear. […]
To prepare the vascular cuff grafts, the drug was embedded therein using the following procedure. […] The cuff section weights with the loaded drug were then determined and recorded. The cuff section weights without the loaded drug were determined after the study by washing the cuffs with ethanol and drying. […]
Absorbance was measured to determine the amount of drug released from the cuff sections. […] The PBS solutions were then analyzed using the Shimadzu UV 1600 spectrophotometer. […] The absorbance at ˜286 nm was recorded by automatic peak detection by the spectrophotometer. […]

levels of the drug in release medium (after nine weeks): still detectable
drug released (after one day): approximately 50%
Structure (SMILES): CC(=O)O.CC(=O)O.NC(=N\CCCCCC/N=C(N)/N=C(\N)Nc1ccc(Cl)cc1)/N=C(\N)Nc1ccc(Cl)cc1 [ChAc, chlorhexidine acetate]
